Counter-ions that a name gives are not always drawn. Like-named read-outs stand apart in the source and are kept apart here.
Legend:
[1] = system: mouse NSC neurosphere cultures; assay: Dose-response curves and EC50, neurosphere MTT proliferation, 7 days; type: cell-based
[2] = system: ptc1+/− medulloblastoma precursor cells (neurosphere cultures); assay: Medulloblastoma tumor sphere MTT proliferation EC50; type: cell-based, mouse
Text: (§1) Astrocyte Screen and Neurosphere Selectivity Assessment. […] Murine Medulloblastoma Generation and Culture. […] Flow Cytometry. […] Results

[3] = system: hGBM2 precursors (WHO grade IV GBM, giant cell variant); assay: Human glioblastoma precursor EC50 (hGBM2); type: cell-based; details: Homo sapiens
[4] = system: hGBM1 precursors (WHO grade IV GBM); assay: Human glioblastoma precursor EC50 (hGBM1); type: cell-based; details: Homo sapiens
[5] = system: murine neural precursor cells (neurosphere cultures); assay: HTS of LOPAC library against secondary neurosphere cultures, MTT proliferation assay at 3 μM, day 7 (z score, P value); type: cell-based, mouse
[6] = system: Ptch1+/− Trp53−/− medulloblastoma neurosphere cultures; assay: Tumor sphere MTT proliferation EC50; type: cell-based, mouse; details: Mus musculus, read-out: Ptch1+/− Trp53−/− neurosphere EC50
Text: as §1

[7] = 168 h, normal mouse neurosphere cultures, MTT, 7 days, read-out: Neurosphere EC50
[8] = Mus musculus, read-out: EC 50% Neurosphere, Table 5
[9] = Mus musculus, Table 8, read-out: Neurosphere EC50
[10] = Mus musculus, ptc1+/− medulloblastoma derived neurospheres, read-out: Medulloblastoma Neurosphere EC50
[11] = cultures derived from mouse cerebellar tumor samples, read-out: Ptch1+/− neurosphere EC50
[12] = LOPAC library screen, 3 μM, MTT, secondary neurosphere cultures, day 7
[13] = LOPAC primary screen, neurosphere MTT proliferation, 3 μM, day 7
[14] = yes/no: significantly inhibited neurosphere proliferation (P<0.01) in the primary screen
[15] = Table 8, read-out: Neurosphere EC50
[16] = yes = significantly inhibited neurosphere proliferation (P<0.01) in the primary screen
[17] = read-out: EC 50% Neurosphere, Table 5
[18] = normal mouse neurosphere cultures, MTT, 7 days, read-out: Neurosphere EC50
[19] = ptc1+/− medulloblastoma derived neurospheres, read-out: Medulloblastoma Neurosphere EC50
[20] = LOPAC library screen at 3 μM, secondary neurosphere cultures, MTT
[21] = LOPAC screen, neurosphere MTT proliferation, 3 μM, day 7
[22] = yes/no: significantly inhibited neurosphere proliferation (P<0.01) in primary screen
[23] = yes/no: significantly inhibited neurosphere proliferation in primary screen
[24] = primary LOPAC screen, 3 μM, MTT, neurosphere proliferation
[25] = yes/no: significantly inhibited neurosphere proliferation in the primary screen
[26] = LOPAC library screen, 3 μM, MTT, neurosphere cultures
[27] = LOPAC library screen at 3 μM, MTT, secondary neurosphere cultures, screened in singlets

CCN(CC)CCOCCOC(=O)C1(c2ccccc2)CCCC1 [Carbetapentane (10), Carbetapentane]
EC50 [1, 7]: 756 nM
EC50 [1, 8]: 756 nM
EC50 [1, 9]: 756 nM
EC50 [2, 10]: 2080 nM
EC50 [2, 11]: 2080 nM
EC50 [3]: 1730 nM
EC50 [4]: 5440 nM
Z Score [5, 12]: −8.021
Z score [5, 13]: −8.021
Activity [5, 14]: yes

CC1=C(/C=C/C(C)=C/C=C/C(C)=C/C(=O)Nc2ccc(O)cc2)C(C)(C)CCC1 [Fenretinide (11), Retinoic acid p-hydroxyanilide]
EC50 [1, 7]: 334 nM
EC50 [1, 8]: 334 nM
EC50 [1, 9]: 334 nM
EC50 [2, 10]: 204 nM
EC50 [2, 11]: 204 nM
Z Score [5, 12]: −6.013
Z score [5, 13]: −6.013
Activity [5, 14]: yes

C[C@@H]1C[C@@H]([C@H](O)CC2CC(=O)NC(=O)C2)C(=O)[C@@H](C)C1 [Cycloheximide (1), Cycloheximide]
EC50 ([2]; Mus musculus, read-out: Medulloblastoma Neurosphere EC50): 42 nM
EC50 ([2]; Mus musculus, read-out: Ptch1+/− neurosphere EC50): 42 nM
EC50 [6]: 54 nM

CC(=O)O[C@H]1C(=O)[C@@]2(C)[C@H]([C@H](OC(=O)c3ccccc3)[C@]3(O)C[C@H](OC(=O)[C@H](O)[C@@H](NC(=O)c4ccccc4)c4ccccc4)C(C)=C1C3(C)C)[C@]1(OC(C)=O)CO[C@@H]1C[C@@H]2O [Taxol (21), Taxol]
EC50 [1, 9]: 10 nM

COc1cc(CNC(=O)CCCCCCC(C)C)ccc1O [Dihydrocapsaicin (15), Dihydrocapsaicin]
EC50 [2, 10]: 20 nM
EC50 [2, 11]: 20 nM
EC50 [3]: 21500 nM
EC50 [4]: 88600 nM
Z Score [5, 12]: −10
Z score [5, 13]: −10.003
Activity [5, 14]: yes

COc1ccc(CCNC[C@H](O)c2ccc(O)cc2)cc1OC [R(−)-Denopamine (24), R(−)-Denopamine]
EC50 [1, 15]: 39200 nM

c1ccc2c(c1)[I+]c1ccccc1-2 [Diphenyleneiodonium (33), Diphenyleneiodonium, reference compound]
EC50 [1, 8]: 11 nM
EC50 [1, 9]: 11 nM
Z Score [5, 12]: −10.07
Z score [5, 13]: −10.068
Activity [5, 16]: yes

CN1CCN(c2nc3cc(C(F)(F)F)ccc3n3cccc23)CC1.O=C(O)/C=C\C(=O)O [CGS-12066A (40), reference compound]
EC50 [1, 15]: 2010 nM
EC50 [1, 17]: 2010 nM
Z Score [5, 12]: −2.575
Z score [5, 13]: −2.575
Activity [5, 16]: yes

COc1cc2ncnc(Nc3ccc(O)cc3)c2cc1OC [WHI-P131 (12), 4-(4′-hydroxylphenyl)-amino-6,7-dimethoxyquinazoline]
EC50 [1, 7]: 2350 nM
EC50 [1, 8]: 2350 nM
EC50 [1, 9]: 2350 nM
EC50 [2, 10]: 1520 nM
EC50 [2, 11]: 1520 nM

CCCCCCCCCCC/C=C\C(C)(C)/C=C\CCCC(=O)O [7,7-Dimethyl-(5Z,8Z)-eicosadienoic acid]
EC50 [1, 15]: 5170 nM
Z Score [5]: −3.045
Z score [5, 13]: −3.045
Activity [5, 14]: yes

CC(C)COC(=O)OCN1C(=O)CN(CCN2CC(=O)N(COC(=O)OCC(C)C)C(=O)C2)CC1=O [Sobuzaxane (19), Sobuzaxane]
EC50 [1, 15]: 10200 nM

Oc1ccc(-c2nc(-c3ccc(F)cc3)c(-c3ccncc3)[nH]2)cc1 [SB 202190 (13)]
EC50 [1, 15]: 8060 nM
EC50 [1, 18]: 8060 nM
EC50 [1, 17]: 8060 nM
EC50 [2, 11]: 3010 nM
EC50 [2, 19]: 3010 nM
Z Score [5, 20]: −1.124
Z score [5, 21]: −1.124
Activity [5, 22]: no

Cl.Cl.OCCN1CCN(CC/C=C2/c3ccccc3Sc3ccc(C(F)(F)F)cc32)CC1 [cis-(Z)-Flupenthixol (7), cis-(Z)-Flupenthixol]
EC50 [1, 15]: 199 nM
EC50 [1, 18]: 199 nM
EC50 [1, 17]: 199 nM
EC50 [2, 11]: 187 nM
EC50 [2, 19]: 187 nM
Z Score [5, 12]: −8.822
Z score [5, 13]: −8.822
Activity [5, 14]: yes

CC[C@H](C)C(=O)O[C@H]1CCC=C2C=C[C@H](C)[C@H](CC[C@@H]3C[C@@H](O)CC(=O)O3)[C@H]21 [Mevastatin (20), Mevastatin]
EC50 [1, 9]: 142 nM

Tyrphoslin AG 34 [Tyrphoslin AG 34 (37)]
EC50 [1, 15]: 9920 nM

CC(C)COCC(CN(Cc1ccccc1)c1ccccc1)N1CCCC1 (stereo not drawn) [Bepridil (28), Bepridil, reference compound]
EC50 [1, 8]: 2700 nM
EC50 [1, 9]: 2700 nM
Z Score [5, 12]: −2.655
Z score [5, 13]: −2.655
Activity [5, 16]: yes

S=C=Nc1cccc(C2(N3CCCCC3)CCCCC2)c1 [Metaphit (35), Metaphit, reference compound]
EC50 [1, 8]: 10000 nM
EC50 [1, 9]: 10000 nM
Z Score [5]: −4.967
Z score [5, 13]: −4.967
Activity [5, 14]: yes

(R)-(−)-Propylnorapomorphine [(R)-(−)-Propylnorapomorphine (5)]
EC50 [1, 15]: 351 nM
EC50 [1, 18]: 351 nM
EC50 [1, 17]: 351 nM
EC50 [2, 11]: 199 nM
EC50 ([2]; read-out: Medulloblastoma Neurosphere EC50): 199 nM
Activity [5]: yes
Z Score [5]: −8.274
Z score [5]: −8.274

CC[C@]1(O)C[C@@H]2CN(CCc3c([nH]c4ccccc34)[C@@](C(=O)OC)(c3cc4c(cc3OC)N(C)[C@H]3[C@@](O)(C(=O)OC)[C@H](OC(C)=O)[C@]5(CC)C=CCN6CC[C@]43[C@@H]65)C2)C1 [Vinblastine(22), Vinblastine]
EC50 [1, 9]: 28 nM

CCc1ccccc1OC[C@@H](O)CN[C@H]1CCCc2ccccc21.O=C(O)C(=O)O [SR 59230A oxalate]
Z Score [5, 12]: −1.222
Z score [5, 13]: −1.222
Activity [5, 23]: no

COc1cc(Cc2cnc(N)nc2N)cc(OC)c1OC [Trimethoprim]
Z Score [5, 12]: −1.23
Z score [5, 24]: −1.230
Activity [5, 25]: no

CC(C)Cn1c(=O)n(C)c(=O)c2[nH]cnc21 [3-Isobutyl-1-methylxanthine]
Z Score ([5]; 168 h, 3 µM): −0.774
Z score ([5]; 168 h, 3 µM): −0.774
Activity [5, 22]: no

WB 64
Z Score [5]: −1.683
Z score [5, 24]: −1.683
Activity [5, 25]: no

CN/C(=N\c1ccc(C2=NNC(=O)CC2C)cc1)NC#N (stereo not drawn) [SKF 94836]
Z Score [5]: 0.2458
Z score [5, 13]: 0.246
Activity [5, 23]: no

CC12NC(Cc3ccccc31)c1ccccc12.O=C(O)/C=C\C(=O)O (single isomer, unassigned; (+)) [(+)-MK-801 hydrogen maleate]
Z Score [5]: −0.09805
Z score [5, 13]: −0.098
Activity [5, 16]: no

COC(=O)[C@@H]1[C@H]2C[C@H]3c4[nH]c5ccccc5c4CCN3C[C@@H]2CC[C@@H]1O [Yohimbine hydrochloride]
Z Score ([5]; 168 h, 3 µM): −1.656
Z score ([5]; 168 h, 3 µM): −1.656
Activity [5, 25]: no

OC1(c2ccc(Cl)cc2)CCN(Cc2c[nH]c3ccccc23)CC1 [L-741,626]
Z Score [5]: −1.009
Z score [5, 13]: −1.009
Activity [5, 16]: no

Nc1nc(SCc2ccc([N+](=O)[O-])cc2)c2ncn([C@@H]3O[C@H](CO)[C@@H](O)[C@H]3O)c2n1 [S-(4-Nitrobenzyl)-6-thioguanosine]
Z Score [5, 26]: 0.1017
Z score [5, 13]: 0.102
Activity [5, 23]: no

Cl.NCCc1ccc(S(=O)(=O)F)cc1 [4-(2-Aminoethyl)benzenesulfonyl fluoride hydrochloride]
Z Score [5]: 0.3634
Z score [5, 24]: 0.363
Activity [5, 25]: no

C[C@]12CC[C@@H](O)C[C@@H]1CC[C@@H]1[C@@H]2CC[C@]2(C)[C@@H](O)CC[C@@H]12 [5alpha-Androstane-3alpha, 17beta-diol]
Z Score [5]: −0.3811

C1CCc2nnnn2CC1 [Pentylenetetrazole]
Z Score [5, 20]: −0.9274
Z score [5, 13]: −0.927
Activity [5, 16]: no

Cc1oncc1C(=O)Nc1ccc(C(F)(F)F)cc1 [Leflunomide]
Z Score [5, 27]: 4.103
Z score [5, 13]: 4.103
Activity [5, 22]: no

Cc1ccc(C(=O)Nc2ccc(S(=O)(=O)[O-])c3cc(S(=O)(=O)[O-])cc(S(=O)(=O)[O-])c23)cc1NC(=O)c1cccc(NC(=O)Nc2cccc(C(=O)Nc3cc(C(=O)Nc4ccc(S(=O)(=O)[O-])c5cc(S(=O)(=O)[O-])cc(S(=O)(=O)[O-])c45)ccc3C)c2)c1.[Na+].[Na+].[Na+].[Na+].[Na+].[Na+] [Suramin hexasodium]
Z Score [5, 27]: 2.284
Z score [5, 24]: 2.284
Activity [5, 25]: no

CCCCCCCCCC(=O)NC(CN1CCOCC1)[C@H](O)c1ccccc1.Cl (mixture of isomers)
Activity [5]: no
Z score [5, 13]: −1.109

CGP 20712A methanesulfonate
Z Score [5, 26]: 0.6491
Z score [5, 21]: 0.649
Activity [5, 22]: no

CN1C2CCC1CC(OC(=O)c1cc(Cl)cc(Cl)c1)C2 (stereo not drawn) [ML-9]
Z Score [5]: −9.322
Z score [5, 13]: −9.322

C[C@@H]1O[C@H](C[N+](C)(C)C)C[C@H]1O.[Cl-] [(B1)-Muscarine chloride]
Z Score [5]: −1.905

Source: US8058243B2, “Method for treating a brain cancer with ifenprodil” (HSC Research and Development Limited Partnership, priority 2006, dated 2011)
